Numbers after ± are expanded uncertainties.
Columns and labels:
[1] = refractive index (Na D-line) (dimensionless); xn = mol fraction of the nth substance listed; conditions: 101 kPa, Liquid, Standard Abbe refractometry
[2] = xn = mol fraction of the nth substance listed; conditions: 101 kPa, Liquid; for viscosity: Stabinger viscometer; for mass density: Vibrating tube method

CCn1cc[n+](C)c1.NCC(=O)[O-] [1-ethyl-3-methylimidazolium ammonioacetate] + CCn1cc[n+](C)c1.N#C[C-](C#N)C#N
Conditions	mass density, [2] [kg/m3]	refractive index, [1]	viscosity, [2] [mPa·s]
293.15 K, x2 = 0	1164.3 ± 15	1.52134 ± 0.00087	240.18 ± 14
293.15 K, x2 = 0.2498	1140.2 ± 14	1.52032 ± 0.00096	94.03 ± 4.5
293.15 K, x2 = 0.5001	1118.4 ± 14	1.51815 ± 0.00089	53.98 ± 5.5
293.15 K, x2 = 0.7501	1101.2 ± 13	1.51562 ± 0.00083	29.05 ± 0.72
298.15 K, x2 = 0	1161.2 ± 15	1.51997 ± 0.00087	171.97 ± 8.2
298.15 K, x2 = 0.2498	1136.9 ± 14	1.51892 ± 0.00096	70.85 ± 3.2
298.15 K, x2 = 0.5001	1115 ± 14	1.51656 ± 0.00089	42.14 ± 4.3
298.15 K, x2 = 0.7501	1097.8 ± 13	1.51399 ± 0.00083	23.45 ± 0.58
303.15 K, x2 = 0	1158.1 ± 14	1.5186 ± 0.00087	126.19 ± 5.1
303.15 K, x2 = 0.2498	1133.7 ± 14	1.51743 ± 0.00096	54.7 ± 2.4
303.15 K, x2 = 0.5001	1111.7 ± 14	1.51505 ± 0.00089	33.55 ± 3.4
303.15 K, x2 = 0.7501	1094.4 ± 13	1.51238 ± 0.00083	19.43 ± 0.48
308.15 K, x2 = 0	1155 ± 14	1.51724 ± 0.00087	95.04 ± 3.3
308.15 K, x2 = 0.2498	1130.5 ± 14	1.51596 ± 0.00096	43.19 ± 1.9
308.15 K, x2 = 0.5001	1108.4 ± 14	1.51355 ± 0.00089	27.19 ± 2.8
308.15 K, x2 = 0.7501	1091 ± 13	1.5108 ± 0.00083	16.35 ± 0.41
313.15 K, x2 = 0	1152 ± 14	1.51585 ± 0.00087	73.5 ± 2.3
313.15 K, x2 = 0.2498	1127.3 ± 14	1.51457 ± 0.00096	34.81 ± 1.5
313.15 K, x2 = 0.5001	1105.2 ± 13	1.51205 ± 0.00089	22.25 ± 2.3
313.15 K, x2 = 0.7501	1087.7 ± 13	1.50922 ± 0.00083	13.9 ± 0.34
318.15 K, x2 = 0	1149 ± 14	1.5145 ± 0.00087	57.66 ± 1.6
318.15 K, x2 = 0.2498	1124.3 ± 14	1.51315 ± 0.00096	28.43 ± 1.3
318.15 K, x2 = 0.5001	1102.1 ± 13	1.51057 ± 0.00089	18.69 ± 1.9
318.15 K, x2 = 0.7501	1084.4 ± 13	1.50764 ± 0.00083	12.02 ± 0.3
323.15 K, x2 = 0	1146 ± 14	1.51313 ± 0.00087	46.21 ± 1.4
323.15 K, x2 = 0.2498	1121.1 ± 14	1.51173 ± 0.00096	23.59 ± 1.1
323.15 K, x2 = 0.5001	1098.9 ± 13	1.50908 ± 0.00089	15.89 ± 1.6
323.15 K, x2 = 0.7501	1081 ± 13	1.50609 ± 0.00083	10.47 ± 0.26
328.15 K, x2 = 0	1143 ± 14	1.51179 ± 0.00087	37.66 ± 1.1
328.15 K, x2 = 0.2498	1118 ± 14	1.51031 ± 0.00096	19.87 ± 0.88
328.15 K, x2 = 0.5001	1095.7 ± 13	1.5076 ± 0.00089	13.84 ± 1.4
328.15 K, x2 = 0.7501	1077.7 ± 13	1.50449 ± 0.00083	9.21 ± 0.23
333.15 K, x2 = 0	1139.9 ± 14	1.51041 ± 0.00087	31.24 ± 0.91
333.15 K, x2 = 0.2498	1114.8 ± 14	1.5089 ± 0.00096	16.92 ± 0.75
333.15 K, x2 = 0.5001	1092.5 ± 13	1.50613 ± 0.00089	11.88 ± 1.2
333.15 K, x2 = 0.7501	1074.5 ± 13	1.50295 ± 0.00083	8.12 ± 0.2
338.15 K, x2 = 0	1136.9 ± 14	1.50904 ± 0.00087	26.08 ± 0.76
338.15 K, x2 = 0.2498	1111.7 ± 14	1.50751 ± 0.00096	14.58 ± 0.65
338.15 K, x2 = 0.5001	1089.3 ± 13	1.50462 ± 0.00089	10.47 ± 1.1
338.15 K, x2 = 0.7501	1071.2 ± 13	1.50143 ± 0.00083	7.29 ± 0.18
343.15 K, x2 = 0	1133.8 ± 14	1.50769 ± 0.00087	22.11 ± 0.65
343.15 K, x2 = 0.2498	1108.6 ± 14	1.50614 ± 0.00096	12.67 ± 0.56
343.15 K, x2 = 0.5001	1086.1 ± 13	1.50315 ± 0.00089	9.233 ± 0.94
343.15 K, x2 = 0.7501	1068 ± 13	1.49987 ± 0.00083	6.55 ± 0.16
348.15 K, x2 = 0	1130.7 ± 14	1.50637 ± 0.00087	18.95 ± 0.55
348.15 K, x2 = 0.2498	1105.5 ± 14	1.50472 ± 0.00096	11.1 ± 0.49
348.15 K, x2 = 0.5001	1082.9 ± 13	1.5017 ± 0.00089	8.191 ± 0.83
348.15 K, x2 = 0.7501	1064.7 ± 13	1.49834 ± 0.00083	5.92 ± 0.15
353.15 K, x2 = 0	1127.4 ± 14	1.50495 ± 0.00087	16.45 ± 0.48
353.15 K, x2 = 0.2498	1102.4 ± 14	1.50334 ± 0.00096	9.77 ± 0.43
353.15 K, x2 = 0.5001	1079.7 ± 13	1.50021 ± 0.00089	7.189 ± 0.73
353.15 K, x2 = 0.7501	1061.5 ± 13	1.49682 ± 0.00083	5.35 ± 0.13

Reference: the NIST ThermoML archive (doi:10.1021/acs.jced.5b00242)
